Tests used:
[1] = molecular target: muscarinic acetylcholine receptors; assay type: binding, rat (male Wistar); details: 3H-QNB 1 nM; whole forebrain membranes, male Wistar rats; 37° C., 20 min, pH 7.1; non-specific: atropine 1 μg/ml
[2] = background, in words; cited from earlier work
[3] = system: muscarinic cholinergic; details: background, in words; cited from earlier work
[4] = system: muscarinic; details: background, in words; cited from earlier work
[5] = background, in words; cited from earlier work; remark: listed apart in the source

Structure (SMILES): CCc1noc(C2=CCCN(C)C2)n1
- QNB binding Inhibition in vitro (IC50) [1]: 3.5 µg/mL

Structure (SMILES): CN1CCC=C(c2nc(C3CC3)no2)C1
- QNB binding Inhibition in vitro (IC50) [1]: 2.0 µg/mL

Structure (SMILES): CCCc1nc(C2=CCCN(C)C2)no1
- QNB binding Inhibition in vitro (IC50) [1]: 3.2 µg/mL

Structure (SMILES): CC(C)c1noc(C2=CCCN(C)C2)n1
- QNB binding Inhibition in vitro (IC50) [1]: 4.9 µg/mL

Structure (SMILES): C1=C(c2nc(C3CC3)no2)CNCC1
- QNB binding Inhibition in vitro (IC50) [1]: 4.7 µg/mL

Structure (SMILES): CCCCc1noc(C2=CCC(C)N(C)C2)n1 (centres unmarked)
- QNB binding Inhibition in vitro (IC50) [1]: 3.3 µg/mL

Structure (SMILES): CCc1noc(C2=CC(C)CNC2)n1 (centres unmarked)
- QNB binding Inhibition in vitro (IC50) [1]: 7.5 µg/mL

Structure (SMILES): COC(=O)C1=CCCN(C)C1 [arecoline, methyl 1-methyl-1,2,5,6-tetrahydropiperidine-3-carboxylate]
- toxicity [2]: rather toxic compound
- cholinergic agonist [3]: cholinergic agonist
- separation between central and peripheral muscarinic effects [4]: small separation between central and peripheral muscarinic effects
- biological half life [5]: very short biological half life
